Patent US4966900A, “Cephalosporin β-lactam compound and medicinal composition” (priority 1986, dated 1990)
Values after ≈ are worked out from the molar mass of the structure shown. Counter-ions that a name gives are not always drawn.

How the values were obtained:
Assay in all cases: MIC
C. freundii 1R523 = conditions: Citrobacter freundii, 1R523
E. colacae GN7471 = conditions: Table 5
E. coli GN5482 = conditions: Escherichia coli, GN5482, E. coli GN5482; Table 5
C. freundii 1U692 = conditions: Citrobacter freundii, 1U692
P. aeruginosa GN10362 = conditions: Pseudomonas aeruginosa, GN10362
P. aeruginosa 4au542 = conditions: Pseudomonas aeruginosa, 4AU542, P. aeruginosa 4au542; Table 5
S. marcescens GN10857 = conditions: Serratia marcescens, GN10857, S. marcescens GN10857; Table 5
P. vulgaris GN7919 = conditions: Proteus vulgaris, GN7919
S. aureus IAA498 = format: cell-based; conditions: Staphylococcus aureus, Table 5
Method: (§1) The minimum inhibition concentrations (MIC) of the compounds obtained in the respective examples described above were measured according to the standard method of Japanese Chemotherapy Association.

E. cloacae 1Y247 = format: cell-based; conditions: Enterobacter cloacae, Table 6, read-out: MIC
Method: as §1

C. freundii 1U589 = conditions: Citrobacter freundii, 1U589
C. freundii 1R524 = conditions: Citrobacter freundii, 1R524
E. coli ML4707 = conditions: Escherichia coli, ML4707, E. coli ML4707; Table 5
C. freundii 5D60-1 = conditions: Citrobacter freundii, 5D601
P. maltophilia OF247 = conditions: Stenotrophomonas maltophilia, Table 5
S. aureus Smith = conditions: Staphylococcus aureus, Table 5
E. cloacae 1V25 = conditions: Enterobacter cloacae
E. cloacae 5D52-2 = conditions: Enterobacter cloacae, 5D522
P. aeruginosa 5D58-1 = conditions: Pseudomonas aeruginosa, 5D581, P. aeruginosa 5D58-1; Table 5
C. freundii 1R526 = conditions: Citrobacter freundii, 1R526
E. cloacae 908RN = conditions: Enterobacter cloacae
K. pneumoniae 4at521 = conditions: Klebsiella pneumoniae, 4AT521
P. cepacia OF189 = conditions: Burkholderia cepacia, OF189, P. cepacia OF189; Table 5
E. cloacae 5D63-2 = conditions: Enterobacter cloacae, 5D632
C. freundii 1R527 = conditions: Citrobacter freundii, 1R527
C. freundii GN7391 = conditions: Citrobacter freundii, GN7391, C. freundii GN7391

MIC (C. freundii 1R523) | MIC (E. colacae GN7471) | MIC (E. coli GN5482) | MIC (C. freundii 1U692) | MIC (P. aeruginosa GN10362) | MIC (P. aeruginosa 4au542) | MIC (S. marcescens GN10857) | MIC (P. vulgaris GN7919) | MIC (S. aureus IAA498) | MIC (E. cloacae 1Y247) | MIC (C. freundii 1U589) | MIC (C. freundii 1R524) | MIC (E. coli ML4707) | MIC (C. freundii 5D60-1) | MIC (P. maltophilia OF247) | MIC (S. aureus Smith) | MIC (E. cloacae 1V25) | MIC (E. cloacae 5D52-2) | MIC (P. aeruginosa 5D58-1) | MIC (C. freundii 1R526) | SMILES | other results
0.1 µg/mL (≈ 0.121 µM) | 0.78 µg/mL (≈ 0.942 µM) | 0.012 µg/mL (≈ 0.0145 µM) | 0.2 µg/mL (≈ 0.242 µM) | 0.05 µg/mL (≈ 0.0604 µM) | 0.2 µg/mL (≈ 0.242 µM) | 0.2 µg/mL (≈ 0.242 µM) | 0.78 µg/mL (≈ 0.942 µM) | 25 µg/mL (≈ 30.2 µM) | 3.13 µg/mL (≈ 3.78 µM) | 0.2 µg/mL (≈ 0.242 µM) | 0.1 µg/mL (≈ 0.121 µM) | 0.012 µg/mL (≈ 0.0145 µM) | 0.39 µg/mL (≈ 0.471 µM) | 0.39 µg/mL (≈ 0.471 µM) | 25 µg/mL (≈ 30.2 µM) | 6.25 µg/mL (≈ 7.55 µM) | 0.1 µg/mL (≈ 0.121 µM) | 0.78 µg/mL (≈ 0.942 µM) | 0.1 µg/mL (≈ 0.121 µM) | Cc1nc2nc(C(=O)O)cc(SCC3=C(C(=O)O)N4C(=O)C(NC(=O)C(=NOC(C)(C)C(=O)NNC(=O)c5ccc(O)c(O)c5)c5csc(N)n5)C4SC3)n2n1 (stereo not drawn) [Example 37] | MIC (E. cloacae 908RN; E. cloacae 908RN, Table 6): 0.78 µg/mL (≈ 0.942 µM); MIC (E. cloacae 908RN; E. colacae 908RN, Table 5): 0.78 µg/mL (≈ 0.942 µM); MIC (K. pneumoniae 4at521): < 0.006 µg/mL; MIC (P. cepacia OF189): < 0.006 µg/mL; MIC (E. cloacae 5D63-2): 0.2 µg/mL (≈ 0.242 µM); MIC (C. freundii 1R527): 0.1 µg/mL (≈ 0.121 µM); MIC (C. freundii GN7391; Table 5): 1.56 µg/mL (≈ 1.88 µM); MIC (C. freundii GN7391; Table 6): 3.13 µg/mL (≈ 3.78 µM)
0.1 µg/mL (≈ 0.125 µM) | 1.56 µg/mL (≈ 1.96 µM) | < 0.006 µg/mL | 0.39 µg/mL (≈ 0.489 µM) | 0.2 µg/mL (≈ 0.251 µM) | 0.39 µg/mL (≈ 0.489 µM) | 0.2 µg/mL (≈ 0.251 µM) | 0.78 µg/mL (≈ 0.978 µM) | 12.5 µg/mL (≈ 15.7 µM) | 1.56 µg/mL (≈ 1.96 µM) | 0.39 µg/mL (≈ 0.489 µM) | 0.1 µg/mL (≈ 0.125 µM) | < 0.006 µg/mL | 0.39 µg/mL (≈ 0.489 µM) | 0.2 µg/mL (≈ 0.251 µM) | 12.5 µg/mL (≈ 15.7 µM) | 12.5 µg/mL (≈ 15.7 µM) | 0.39 µg/mL (≈ 0.489 µM) | 0.78 µg/mL (≈ 0.978 µM) | 0.1 µg/mL (≈ 0.125 µM) | Cc1nc2ncnn2c(SCC2=C(C(=O)O)N3C(=O)C(NC(=O)C(=NOC(C)(C)C(=O)NNC(=O)c4ccc(O)c(O)c4)c4csc(N)n4)C3SC2)c1C (stereo not drawn) [Example 39] | MIC (E. cloacae 908RN; E. cloacae 908RN, Table 6): 3.13 µg/mL (≈ 3.92 µM); MIC (E. cloacae 908RN; E. colacae 908RN, Table 5): 1.56 µg/mL (≈ 1.96 µM); MIC (K. pneumoniae 4at521): 0.012 µg/mL (≈ 0.015 µM); MIC (P. cepacia OF189): < 0.006 µg/mL; MIC (E. cloacae 5D63-2): 0.2 µg/mL (≈ 0.251 µM); MIC (C. freundii 1R527): 0.1 µg/mL (≈ 0.125 µM); MIC (C. freundii GN7391; Table 5): 3.13 µg/mL (≈ 3.92 µM); MIC (C. freundii GN7391; Table 6): 3.13 µg/mL (≈ 3.92 µM)
0.025 µg/mL | 0.39 µg/mL | < 0.006 µg/mL | 0.05 µg/mL | 0.1 µg/mL | 0.2 µg/mL | 0.1 µg/mL | 0.39 µg/mL | 50 µg/mL | 0.39 µg/mL | 0.05 µg/mL | 0.006 µg/mL | < 0.006 µg/mL | 0.1 µg/mL | 0.1 µg/mL | 25 µg/mL | 1.56 µg/mL | 0.05 µg/mL | 0.39 µg/mL | 0.025 µg/mL | Cc1nc2nc(C(=O)O)nn2c(SCC2=C(C(=O)O)N3C(=O)C(NC(=O)C(=NOC(C)(C)C(=O)NNC(=O)c4ccc(O)c(O)c4)c4csc(N)n4)C3SC2)c1C (stereo not drawn) [Example 41, 7-{2-[2-Amino-1,3-thiazol 4-yl]-2-[1-(3-(3,4-dihydroxybenzoyl)carbazoyl)-1-methylethoxyimino]acetamide}-3-[(2-carboxy-5,6-dimethyl-s-triazolo[1,5-a]pyrimidin-7-yl)-thiomethyl]-3-cephem-4-carboxylic acid.hydrochloride] | MIC (E. cloacae 908RN; E. cloacae 908RN, Table 6): 0.2 µg/mL; MIC (E. cloacae 908RN; E. colacae 908RN, Table 5): 0.2 µg/mL; MIC (K. pneumoniae 4at521): < 0.006 µg/mL; MIC (P. cepacia OF189): < 0.006 µg/mL; MIC (E. cloacae 5D63-2): 0.1 µg/mL; MIC (C. freundii 1R527): 0.012 µg/mL; MIC (C. freundii GN7391; Table 5): 0.39 µg/mL; MIC (C. freundii GN7391; Table 6): 0.39 µg/mL
